The subject of data set [1] is A549 (lung) human cancer cell line. Description: MTT cytotoxicity assay, A549. Format: cell-based. The procedure:
(§1) Human malignant cell lines, i.e., MCF7 (breast), HeLa (cervix), and A549 (lung), as well as non-cancerous human cell line Hek293 (kidney), were cultured using the Ham's media or DMEM having 10% FBS, […] streptomycin, 100 U ml^−1 penicillin, and 50 mM glutamine. For seeding of cells, 96 well plates were used, maintaining the density of […] cells per well with the help of DMEM as a media having 10% FBS cells. Then, seeded cells were incubated in an incubator having a 5% CO2 supply at 37 °C. Compounds were added to the wells at 1, 10, and 100 μM concentrations, and cells were incubated for 48 h at 37 °C and then added 10 μl of MTT to each well prepared from 5 mg ml^−1 stock solution using 1 × PBS buffer and were incubated for 4 h at 37 °C in the dark. DMSO (100 μl) was used to dissolve the formazan crystals. To determine the concentration of formazan, the crystal absorbance difference was recorded at 570 nm. The percentage of relative cell toxicity was calculated by using the following eqn (1):1 [drawing 1]

The test system of data set [2] is HeLa (cervix) human cancer cell line. The data set is described as follows: MTT cytotoxicity assay, HeLa. The conditions noted are these: 48 h. Format: cell-based. As for the experimental part:
as §1

Data set [3] has as its system MCF7 (breast) human cancer cell line. Description: MTT cytotoxicity assay, MCF7. Format: cell-based. As for the experimental part:
as §1

For data set [4], the system named is Hek293 (kidney) human noncancerous cell line. Description: MTT cytotoxicity assay, normal cells Hek293. Format: cell-based. The conditions noted are these: read-out: growth inhibition of Hek293. The procedure:
To evaluate the safety, the cytotoxic effect of all compounds (7–22) against Hek293 (kidney) human noncancerous cell line was also evaluated using a colorimetric assay (MTT assay) at the concentration level of 10 μM.
as §1

Turning to `C=CCN1C(=O)c2cccc3c(-c4ccc5c(c4)c(-c4nc6ccccc6s4)cn5CC=C)ccc(c23)C1=O` [Compound 15, 2-Allyl-6-(1-allyl-3-(benzo[d]thiazol-2-yl)-1H-indol-5-yl)-1H-benzo[de]isoquinoline-1,3(2H)-dione], the IC50 in data set [1] (Homo sapiens, A549, 48 h) was 1.89 ± 0.15 µM; in data set [2] (Homo sapiens), 2.71 ± 0.09 µM; in data set [3] (Homo sapiens, MCF7, 48 h), 0.38 ± 0.06 µM.
Take `C=CCn1cc(-c2nc3ccccc3s2)c2cc(-c3ccc4c5c(cccc35)C(=O)N(CCN(CC)CC)C4=O)ccc21` [Compound 11, 6-(1-Allyl-3-(benzo[d]thiazol-2-yl)-1H-indol-5-yl)-2-(2-(diethylamino)ethyl)-1H-benzo[de] isoquinoline-1,3(2H)-dione]: the melting point is 281 to 284 °C. In data set [1] (Homo sapiens, A549, 48 h), this molecule came in with an IC50 of 0.81 ± 0.05 µM. In data set [2] (Homo sapiens), the IC50 was 3.07 ± 0.17 µM. In addition, the inhibition at 10 µM in data set [4] is approximately 2%. Besides, in data set [3] (Homo sapiens, MCF7, 48 h), the midpoint of inhibition, the IC50, lay at 3.57 ± 0.21 µM.
Regarding `C=CCn1cc(-c2nc3ccccc3s2)c2cc(-c3ccc4c5c(cccc35)C(=O)N(CCN)C4=O)ccc21` [Compound 9, 6-(1-Allyl-3-(benzo[d]thiazol-2-yl)-1H-indol-5-yl)-2-(2-aminoethyl)-1H-benzo[de]isoquinoline-1,3(2H)-dione], the IC50 is 3.06 ± 0.13 µM in data set [1] (Homo sapiens, A549, 48 h); 4.02 ± 0.18 µM in data set [2] (Homo sapiens); 4.17 ± 0.13 µM in data set [3] (Homo sapiens, MCF7, 48 h). Besides, the inhibition at 10 µM in data set [4] amounted to 17%.
Turning to `COc1cc([C@@H]2c3cc4c(cc3[C@@H](O[C@@H]3O[C@@H]5CO[C@@H](C)O[C@H]5[C@H](O)[C@H]3O)[C@H]3COC(=O)[C@H]23)OCO4)cc(OC)c1O` [Etoposide, reference compound], the IC50 in data set [1] (Homo sapiens, A549, 48 h) stood at 0.1 ± 0.02 µM; in data set [2] (Homo sapiens) it was 1.89 ± 0.19 µM; in data set [3] (Homo sapiens, MCF7, 48 h), 0.33 ± 0.13 µM.
The corresponding values for `C=CCn1cc(-c2nc3ccccc3s2)c2cc(-c3ccc4c5c(cccc35)C(=O)N(Nc3ccccc3)C4=O)ccc21` [Compound 18, 6-(1-Allyl-3-(benzo[d]thiazol-2-yl)-1H-indol-5-yl)-2-(phenylamino)-1H-benzo[de]isoquinoline-1,3(2H)-dione] are 0.96 ± 0.12 µM, 3.96 ± 0.2 µM and 3.58 ± 0.14 µM.
`C=CCn1cc(-c2nc3ccccc3s2)c2cc(-c3ccc4c5c(cccc35)C(=O)N(CCN(C)C)C4=O)ccc21` [Compound 10, 6-(1-Allyl-3-(benzo[d]thiazol-2-yl)-1H-indol-5-yl)-2-(2-(dimethylamino)ethyl)-1H-benzo[de] isoquinoline-1,3(2H)-dione] registered a melting point of 274 to 277 °C. In data set [1] (Homo sapiens, A549, 48 h), this molecule showed an IC50 of 1.02 ± 0.08 µM. The same molecule registered an IC50 in data set [2] (Homo sapiens) of 3.4 ± 0.13 µM. In data set [3] (Homo sapiens, MCF7, 48 h), it took 3.31 ± 0.11 µM to reach half-maximal inhibition (IC50).
For the molecule `C=CCn1cc(-c2nc3ccccc3s2)c2cc(-c3ccc4c5c(cccc35)C(=O)N(CCN3CCNCC3)C4=O)ccc21` [Compound 20, 6-(1-Allyl-3-(benzo[d]thiazol-2-yl)-1H-indol-5-yl)-2-(2-(piperazin-1-yl)ethyl)-1H-benzo[de] isoquinoline-1,3(2H)-dione], the melting point was in the range of 294 to 297 °C. In data set [1] (Homo sapiens, A549, 48 h), this molecule yielded an IC50 of 0.76 ± 0.04 µM. The same molecule had an IC50 in data set [2] (Homo sapiens) of 3.45 ± 0.13 µM. In data set [4], the inhibition at 10 µM came out at 18%. Besides, in data set [3] (Homo sapiens, MCF7, 48 h), half-maximal inhibition (IC50) was put at 3.35 ± 0.16 µM.
Take `C=CCn1cc(-c2nc3ccccc3s2)c2cc(-c3ccc4c5c(cccc35)C(=O)N(CCCC)C4=O)ccc21` [Compound 8, 6-(1-Allyl-3-(benzo[d]thiazol-2-yl)-1H-indol-5-yl)-2-butyl-1H-benzo[de]isoquinoline-1,3(2H)-dione]: the melting point lay in the range of 277 to 280 °C. In data set [1] (Homo sapiens, A549, 48 h), it took 1.19 ± 0.11 µM to reach half-maximal inhibition (IC50). This molecule gave an IC50 in data set [2] (Homo sapiens) of 5.52 ± 0.15 µM. The same molecule yielded an IC50 in data set [3] (Homo sapiens, MCF7, 48 h) of 7.69 ± 0.2 µM.
The matching figures for `C=CCn1cc(-c2nc3ccccc3s2)c2cc(-c3ccc4c5c(cccc35)C(=O)N(Cc3ccccc3)C4=O)ccc21` [Compound 17, 6-(1-Allyl-3-(benzo[d]thiazol-2-yl)-1H-indol-5-yl)-2-benzyl-1H-benzo[de]isoquinoline-1,3(2H)-dione]: 281 to 284 °C, 2.01 ± 0.09 µM, 4.17 ± 0.21 µM and 4.39 ± 0.23 µM.
As to `CCCn1cc(-c2nc3ccccc3s2)c2cc(-c3ccc4c5c(cccc35)C(=O)N(N)C4=O)ccc21` [Compound 22, 2-Amino-6-(3-(benzo[d]thiazol-2-yl)-1-propyl-1H-indol-5-yl)-1H-benzo[de]isoquinoline-1,3(2H)-dione], the IC50 in data set [1] (Homo sapiens, A549, 48 h) is 0.84 ± 0.07 µM; in data set [2] (Homo sapiens), 8.59 ± 0.28 µM; in data set [3] (Homo sapiens, MCF7, 48 h) it was 5.84 ± 0.28 µM.
With `C=CCn1cc(-c2nc3ccccc3s2)c2cc(-c3ccc4c5c(cccc35)C(=O)OC4=O)ccc21` [Compound 7, 6-(1-Allyl-3-(benzo[d]thiazol-2-yl)-1H-indol-5-yl)-1H,3H-benzo[de]isochromene-1,3-dione], the melting point fell in the range of 255 to 258 °C. In addition, the IC50 in data set [1] (Homo sapiens, A549, 48 h) stood at 0.45 ± 0.04 µM. In data set [2] (Homo sapiens), this molecule returned an IC50 of 7.18 ± 0.28 µM. Besides, the IC50 in data set [3] (Homo sapiens, MCF7, 48 h) is 6.94 ± 0.16 µM.
As for `C=CCn1cc(-c2nc3ccccc3s2)c2cc(-c3ccc4c5c(cccc35)C(=O)N(C3CCCCC3)C4=O)ccc21` [Compound 19, 6-(1-Allyl-3-(benzo[d]thiazol-2-yl)-1H-indol-5-yl)-2-cyclohexyl-1H-benzo[de]isoquinoline-1,3(2H)-dione], the melting point lay in the range of 285 to 288 °C. In data set [1] (Homo sapiens, A549, 48 h), this molecule gave an IC50 of 1.47 ± 0.12 µM. In data set [2] (Homo sapiens), this molecule returned an IC50 of 3.33 ± 0.11 µM. The molecule also showed an IC50 in data set [3] (Homo sapiens, MCF7, 48 h) of 1.65 ± 0.11 µM.
For the molecule `C=CCn1cc(-c2nc3ccccc3s2)c2cc(-c3ccc4c5c(cccc35)C(=O)NC4=O)ccc21` [Compound 16, 6-(1-Allyl-3-(benzo[d]thiazol-2-yl)-1H-indol-5-yl)-1H-benzo[de]isoquinoline-1,3(2H)-dione], the melting point lay in the range of 277 to 280 °C. Further, in data set [1] (Homo sapiens, A549, 48 h), 1.91 ± 0.1 µM corresponded to half-maximal inhibition (IC50). In data set [2] (Homo sapiens), this molecule had an IC50 of 3.61 ± 0.19 µM. Moreover, the IC50 in data set [3] (Homo sapiens, MCF7, 48 h) amounted to 3.57 ± 0.08 µM.
“6-(3-(Benzo[d]thiazol-2-yl)-1-propyl-1H-indol-5-yl)-2-(4-fluorophenyl)-1H-benzo[de]isoquinoline-1,3(2H)-dione [Compound 21]”: the IC50 in data set [1] (48 h) is 0.63 ± 0.08 µM; in data set [2], 3.96 ± 0.16 µM; in data set [3] (48 h) it was 4.1 ± 0.23 µM.
The molecule `C=CCn1cc(-c2nc3ccccc3s2)c2cc(-c3ccc4c5c(cccc35)C(=O)N(CCN3CCOCC3)C4=O)ccc21` [Compound 14, 6-(1-Allyl-3-(benzo[d]thiazol-2-yl)-1H-indol-5-yl)-2-(2-morpholinoethyl)-1H-benzo[de]isoquinoline-1,3(2H)-dione] returned a melting point of 285 to 288 °C. This molecule gave an IC50 in data set [1] (Homo sapiens, A549, 48 h) of 1.11 ± 0.06 µM. Also, the IC50 in data set [2] (Homo sapiens) worked out at 3.93 ± 0.11 µM. In addition, in data set [3] (Homo sapiens, MCF7, 48 h), the IC50 is 3.69 ± 0.09 µM.

The record behind these values is article PMC8694140, “Synthesis and photobiological applications of naphthalimide–benzothiazole conjugates: cytotoxicity and topoisomerase IIα inhibition” (RSC Advances, 2021).
